# Experimental data: PMC12785325, “Edible Yellow Mealworm-Derived Antidiabetic Peptides: Dual Modulation of α-Glucosidase and Dipeptidyl-Peptidase IV Inhibition Revealed by Integrated Proteomics, Bioassays, and Molecular Docking Analysis” (Foods, 2025)
# pIC50: −log10 of the molar value. Where a SMILES comes first, the peptide text is derived from it.
# Molecular target: T1, DPP-IV (Homo sapiens, UniProt P27487)
# T1 construct: purchased Abcam (Cambridge, UK)
# Assay: DPP-IV inhibitor screening assay (commercial kit, Abcam)
# Format: biochemical
# Details: IC50 from DPP-IV inhibition rates, '-' = no IC50 given (only three peptides showed inhibitory effects against DPP-IV)
# Experimental: Subsequently, the screening assay was conducted using a commercial kit (Abcam, Cambridge, UK) following the protocols provided by the manufacturer. The half-maximal inhibitory concentration (IC50) was determined through analysis of DPP-IV inhibition rates, applying the formula outlined in Equation (2):(2) DPP-IV inhibition rate (%) = [(ABlank − ASample)/ABlank] × 100 where A represents the absorbance value.
# T1 sequence (P27487 whole entry): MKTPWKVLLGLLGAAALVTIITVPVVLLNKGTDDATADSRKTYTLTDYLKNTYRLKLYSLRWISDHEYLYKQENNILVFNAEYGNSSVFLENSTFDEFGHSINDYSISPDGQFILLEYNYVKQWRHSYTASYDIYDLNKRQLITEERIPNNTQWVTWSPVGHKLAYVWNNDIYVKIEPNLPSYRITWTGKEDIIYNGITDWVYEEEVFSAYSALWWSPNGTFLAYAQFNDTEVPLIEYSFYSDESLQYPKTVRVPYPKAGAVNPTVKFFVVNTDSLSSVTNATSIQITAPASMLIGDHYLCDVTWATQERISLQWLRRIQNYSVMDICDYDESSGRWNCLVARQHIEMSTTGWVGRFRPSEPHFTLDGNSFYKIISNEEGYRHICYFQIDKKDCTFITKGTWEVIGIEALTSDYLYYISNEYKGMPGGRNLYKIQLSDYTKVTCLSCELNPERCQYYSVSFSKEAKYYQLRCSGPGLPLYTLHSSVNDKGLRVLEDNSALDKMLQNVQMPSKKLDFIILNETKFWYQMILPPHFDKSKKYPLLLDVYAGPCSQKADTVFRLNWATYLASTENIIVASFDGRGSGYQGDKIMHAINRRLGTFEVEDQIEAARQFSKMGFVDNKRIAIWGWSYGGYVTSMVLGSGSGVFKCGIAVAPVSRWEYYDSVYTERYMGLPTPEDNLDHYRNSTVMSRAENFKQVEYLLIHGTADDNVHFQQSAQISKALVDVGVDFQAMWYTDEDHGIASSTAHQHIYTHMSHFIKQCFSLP
row,SMILES,pIC50
1,CC(C)C[C@H](NC(=O)[C@@H](N)CO)C(=O)N[C@@H](Cc1ccccc1)C(=O)N[C@@H](CC(C)C)C(=O)N1CCC[C@H]1C(=O)N[C@@H](CCCCN)C(=O)O [SK-6] (H-SLFLPK-OH),< 1.85
2,CC(C)C[C@H](NC(=O)[C@H](CC(=O)O)NC(=O)[C@H](Cc1ccccc1)NC(=O)[C@@H]1CCCN1C(=O)[C@H](CC(N)=O)NC(=O)[C@@H](N)Cc1ccccc1)C(=O)N[C@H](C(=O)N[C@@H](CCCCN)C(=O)O)[C@@H](C)O [FK-8] (H-FNPFDLTK-OH),< 1.99
3,NCCCC[C@H](NC(=O)[C@H](Cc1ccccc1)NC(=O)[C@@H]1CCCN1C(=O)[C@@H]1CCCN1C(=O)CNC(=O)[C@H](Cc1ccc(O)cc1)NC(=O)[C@@H](N)CC(=O)O)C(=O)O [DK-7] (H-DYGPPFK-OH),< 1.92

# System: HepG2 cells
# Assay: HepG2 cell viability (CCK-8)
# Format: cell-based, human
# Details: at certain concentrations within 100-400 μg/mL, 24 h, p < 0.05
# Experimental: HepG2 human hepatocellular carcinoma cells utilized in this study were generously provided by Prof. Fuliang Hu from Zhejiang University’s College of Animal Science (China). Cellular maintenance involved cultivation in HyClone’s high-glucose DMEM medium supplemented with 10% heat-inactivated fetal bovine serum (Gibco, Waltham, MA, USA) and antibiotic agents (100 U/mL penicillin plus 100 μg/mL streptomycin). Cellular propagation was conducted under standard culture conditions (37 °C, 5% CO2 humidified atmosphere), following established protocols.
# To validate whether the bioactive peptides exert toxic effects on cells, the impact of peptide concentrations on cell viability should also be assessed. […] After the treatment period, 10 μL of CCK-8 solution was added, and these 96-well plates were gently shaken and incubated again at 37 °C under 5% CO2 for another 1 h. In the end, the calculation methodology for evaluating the cell viability of bioactive peptides is described in Equation (2) in Section 2.6 to assess the effects of bioactive peptides on cell viability. All blank groups were established using DMEM high-glucose medium devoid of insulin.
row,SMILES,HepG2 cell viability versus blank group
1,CC(C)C[C@H](NC(=O)[C@@H](N)CO)C(=O)N[C@@H](Cc1ccccc1)C(=O)N[C@@H](CC(C)C)C(=O)N1CCC[C@H]1C(=O)N[C@@H](CCCCN)C(=O)O [SK-6] (H-SLFLPK-OH),significantly higher than the blank group
2,CSCC[C@H](NC(=O)CN)C(=O)N[C@@H](CC(=O)O)C(=O)N[C@@H](Cc1ccccc1)C(=O)N[C@@H](CCC(N)=O)C(=O)N1CCC[C@H]1C(=O)N[C@@H](CCCNC(=N)N)C(=O)O [GR-7] (H-GMDFQPR-OH),significantly higher than the blank group
3,CC(C)C[C@H](NC(=O)[C@H](C)NC(=O)[C@H](CC(=O)O)NC(=O)[C@H](Cc1ccccc1)NC(=O)[C@@H]1CCCN1C(=O)[C@@H](N)CC(=O)O)C(=O)N1CCC[C@H]1C(=O)N[C@@H](CCCCN)C(=O)O [DK-8] (H-DPFDALPK-OH),significantly higher than the blank group
